Reference: patent publication US20230158049A1, “COMPOSITIONS AND METHODS FOR TREATING VIRUSES” (University of Virginia Patent Foundation, priority 2020, published 2023)

Test system: SARS-CoV-2
Conditions: […]

C[C@H]1c2cccc(O)c2C(=O)C2=C(O)[C@]3(O)C(=O)C(C(N)=O)=C(O)[C@@H](N(C)C)[C@@H]3[C@@H](O)[C@@H]21 [doxycycline]
time to symptom improvement (doxycycline 100 mg twice daily with osimertinib): ≤ 1 week | time to improvement in all symptoms (doxycycline 200 mg then 100 mg daily for 5 days): ≤ 5 days
